The values below come from ChEMBL document CHEMBL1933046, “Synthesis and antibacterial activity of a novel series of acylides active against community acquired respiratory pathogens” (2012).

Test [1] relates to Streptococcus pneumoniae. Kind of test: Antibacterial activity against telethromycin-resistant Streptococcus pneumoniae B739 expressing erm gene by NCCLS method. The test is classed as functional.
For test [2], the system named is Streptococcus pneumoniae. Kind of test: Antibacterial activity against telethromycin-resistant Streptococcus pneumoniae AB14 expressing erm gene by NCCLS method. The test is classed as functional.
Test [3] deals with Streptococcus pneumoniae. Nature of the test: Antibacterial activity against telethromycin-resistant Streptococcus pneumoniae 5051 expressing erm gene by NCCLS method. The test is classed as functional.
Test [4] relates to Streptococcus pneumoniae. Nature of the test: Antibacterial activity against telethromycin-resistant Streptococcus pneumoniae 757 expressing erm gene by NCCLS method. The test is classed as functional.
The next test has as its system Streptococcus pyogenes. Kind of test: Antibacterial activity against Streptococcus pyogenes 19615 by NCCLS method. The test is classed as functional.
Test [5] relates to Streptococcus pneumoniae. Nature of the test: Antibacterial activity against telethromycin-resistant Streptococcus pneumoniae 3390 expressing erm gene by NCCLS method. The test is classed as functional.
In test [6] the test system is Streptococcus pneumoniae. Kind of test: Antibacterial activity against telethromycin-resistant Streptococcus pneumoniae 3489 expressing erm gene by NCCLS method. The test is classed as functional.
Test [7] has as its system Streptococcus pneumoniae. Nature of the test: Antibacterial activity against telethromycin-resistant Streptococcus pneumoniae 3271 expressing erm gene by NCCLS method. The test is classed as functional.
In test [8] the test system is Streptococcus pneumoniae. Kind of test: Antibacterial activity against telethromycin-resistant Streptococcus pneumoniae 2840 expressing erm gene by NCCLS method. The test is classed as functional.
For test [9], the system named is Streptococcus pneumoniae. Kind of test: Antibacterial activity against Streptococcus pneumoniae 3579 expressing erm gene by NCCLS method. The test is classed as functional.
The test system of a further test is Moraxella catarrhalis. Kind of test: Antibacterial activity against Moraxella catarrhalis 8176 by NCCLS method. The test is classed as functional.
Test [10] concerns Streptococcus pneumoniae. Kind of test: Antibacterial activity against Streptococcus pneumoniae 994 expressing mef gene by NCCLS method. The test is classed as functional.
Test [11] deals with Streptococcus pneumoniae. Nature of the test: Antibacterial activity against telethromycin-resistant Streptococcus pneumoniae 217 expressing erm gene by NCCLS method. The test is classed as functional.
The test system of test [12] is Streptococcus pneumoniae. Nature of the test: Antibacterial activity against telethromycin-resistant Streptococcus pneumoniae 3488 expressing erm gene by NCCLS method. The test is classed as functional.
Another test relates to Haemophilus influenzae. Nature of the test: Antibacterial activity against Haemophilus influenzae 38 by NCCLS method. The test is classed as functional.
The test system of test [13] is Streptococcus pneumoniae. Nature of the test: Antibacterial activity against telethromycin-resistant Streptococcus pneumoniae 162 expressing erm gene by NCCLS method. The test is classed as functional.
Test [14] relates to Streptococcus pneumoniae. Kind of test: Antibacterial activity against Streptococcus pneumoniae 6303 by NCCLS method. The test is classed as functional.
For test [15], the system named is Streptococcus pneumoniae. Kind of test: Antibacterial activity against telethromycin-resistant Streptococcus pneumoniae 5099 expressing erm gene by NCCLS method. The test is classed as functional.
Test [16] concerns Streptococcus pneumoniae. Nature of the test: Antibacterial activity against Streptococcus pneumoniae 49619 by NCCLS method. The test is classed as functional.
Test [17] deals with Streptococcus pneumoniae. Nature of the test: Antibacterial activity against Streptococcus pneumoniae 3579 expressing erm gene infected in mouse systemic infection model. The test is classed as functional, organism-based.
Test [18] has as its system Streptococcus pneumoniae. Kind of test: Antibacterial activity against Streptococcus pneumoniae by NCCLS method. The test is classed as functional.

Converted amounts (≈) assume the structure as drawn. The source made the active and inactive calls. The calls are words filed in the database; no cut-off is given here.

As to `CC[C@H]1OC(=O)[C@H](C)C(=O)[C@H](C)[C@@H](O[C@@H]2O[C@H](C)C[C@H](N(C)C)[C@H]2O)[C@](C)(OC)C[C@@H](C)C(=O)[C@H](C)[C@H]2N(CCCCn3cnc(-c4cccnc4)c3)C(=O)O[C@]12C` [TELITHROMYCIN], the MIC came out at 64 µg/mL (≈ 78.8 µM) in the test on Streptococcus pneumoniae [1]; 8 µg/mL (≈ 9.85 µM) in the test on Streptococcus pneumoniae [2]; 4 µg/mL (≈ 4.93 µM) with Streptococcus pneumoniae [3]; 32 µg/mL (≈ 39.4 µM) against Streptococcus pneumoniae [4]; 0.03 µg/mL (≈ 0.0369 µM) in the test with Streptococcus pyogenes; 8 µg/mL (≈ 9.85 µM) with Streptococcus pneumoniae [5]. In addition, the MIC in the test with Streptococcus pneumoniae [6] is 64 µg/mL (≈ 78.8 µM); in the test with Streptococcus pneumoniae [7] it was 64 µg/mL (≈ 78.8 µM); in the test with Streptococcus pneumoniae [8], 64 µg/mL (≈ 78.8 µM); against Streptococcus pneumoniae [9], 0.25 µg/mL (≈ 0.308 µM); in the test on Moraxella catarrhalis it was 0.25 µg/mL (≈ 0.308 µM); in the test with Streptococcus pneumoniae [10], 0.25 µg/mL (≈ 0.308 µM). For the same compound, the MIC with Streptococcus pneumoniae [11] is 4 µg/mL (≈ 4.93 µM); against Streptococcus pneumoniae [12], 8 µg/mL (≈ 9.85 µM); in the test with Haemophilus influenzae, 1 µg/mL (≈ 1.23 µM); in the test with Streptococcus pneumoniae [13], 64 µg/mL (≈ 78.8 µM); with Streptococcus pneumoniae [14], 0.03 µg/mL (≈ 0.0369 µM); with Streptococcus pneumoniae [15], 8 µg/mL (≈ 9.85 µM). In the test with Streptococcus pneumoniae [16], this compound returned an MIC of 0.06 µg/mL (≈ 0.0739 µM).

As to `C=CCN(C)[C@H]1C[C@@H](C)O[C@@H](O[C@@H]2[C@@H](C)[C@H](OC(=O)Cc3ccccn3)[C@@H](C)C(=O)O[C@H](CC)[C@@]3(C)OC(=O)N(CCCCn4cnc(-c5ccnc(N)c5)c4)[C@@H]3[C@@H](C)C(=O)[C@H](C)C[C@@]2(C)OC)[C@@H]1O`, the MIC in the test on Streptococcus pneumoniae [1] was determined as 1 µg/mL (≈ 1.03 µM); against Streptococcus pneumoniae [2], 0.03 µg/mL (≈ 0.0308 µM); in the test on Streptococcus pneumoniae [3], 0.06 µg/mL (≈ 0.0616 µM); against Streptococcus pneumoniae [4], 0.125 µg/mL (≈ 0.128 µM); in the test with Streptococcus pyogenes it was 2 µg/mL (≈ 2.05 µM); with Streptococcus pneumoniae [5], 0.125 µg/mL (≈ 0.128 µM). Besides, the MIC in the test with Streptococcus pneumoniae [6] stood at 1 µg/mL (≈ 1.03 µM); against Streptococcus pneumoniae [7], 2 µg/mL (≈ 2.05 µM); in the test with Streptococcus pneumoniae [8] it was 0.5 µg/mL (≈ 0.513 µM); in the test on Streptococcus pneumoniae [9] it was 0.125 µg/mL (≈ 0.128 µM); against Moraxella catarrhalis, 0.06 µg/mL (≈ 0.0616 µM); with Streptococcus pneumoniae [10], 0.06 µg/mL (≈ 0.0616 µM). The MIC against Streptococcus pneumoniae [11] is 0.125 µg/mL (≈ 0.128 µM); in the test on Streptococcus pneumoniae [12], 0.125 µg/mL (≈ 0.128 µM); against Streptococcus pneumoniae [13] it was 1 µg/mL (≈ 1.03 µM); with Streptococcus pneumoniae [14], 0.03 µg/mL (≈ 0.0308 µM); against Streptococcus pneumoniae [15], 0.06 µg/mL (≈ 0.0616 µM); in the test on Streptococcus pneumoniae [16] it was 0.03 µg/mL (≈ 0.0308 µM). Also, the outcome with Streptococcus pneumoniae [17] was Active.

Take `CC[C@H]1OC(=O)[C@H](C)[C@@H](O[C@H]2C[C@@](C)(OC)[C@@H](O)[C@H](C)O2)[C@H](C)[C@@H](O[C@@H]2O[C@H](C)C[C@H](N(C)C)[C@H]2O)[C@](C)(OC)C[C@@H](C)C(=O)[C@H](C)[C@@H](O)[C@]1(C)O` [CLARITHROMYCIN]: the MIC against Streptococcus pyogenes is 0.125 µg/mL (≈ 0.167 µM); against Streptococcus pneumoniae [18], 0.25 µg/mL (≈ 0.334 µM); in the test with Streptococcus pneumoniae [9] it was 4 µg/mL (≈ 5.35 µM); in the test on Moraxella catarrhalis, 4 µg/mL (≈ 5.35 µM); against Streptococcus pneumoniae [10] it was 0.5 µg/mL (≈ 0.668 µM); against Haemophilus influenzae, > 16 µg/mL. The MIC in the test with Streptococcus pneumoniae [14] was 0.25 µg/mL (≈ 0.334 µM); against Streptococcus pneumoniae [16] it was 0.125 µg/mL (≈ 0.167 µM).

For `C=CCN(C)[C@H]1C[C@@H](C)O[C@@H](O[C@@H]2[C@@H](C)[C@H](OC(=O)Cc3ccccn3)[C@@H](C)C(=O)O[C@H](CC)[C@@]3(C)OC(=O)N(CCCCn4cnc(-c5ccoc5)c4)[C@@H]3[C@@H](C)C(=O)[C@H](C)C[C@@]2(C)OC)[C@@H]1O`, the MIC with Streptococcus pyogenes worked out at 0.06 µg/mL (≈ 0.0633 µM); in the test with Streptococcus pneumoniae [9], 0.125 µg/mL (≈ 0.132 µM); against Moraxella catarrhalis, 0.125 µg/mL (≈ 0.132 µM); against Streptococcus pneumoniae [10], 0.125 µg/mL (≈ 0.132 µM); in the test with Haemophilus influenzae, 0.25 µg/mL (≈ 0.264 µM); in the test on Streptococcus pneumoniae [14], 0.06 µg/mL (≈ 0.0633 µM). In addition, in the test on Streptococcus pneumoniae [16], the MIC is 0.015 µg/mL (≈ 0.0158 µM).

Consider `C=CCN(C)[C@H]1C[C@@H](C)O[C@@H](O[C@@H]2[C@@H](C)[C@H](OC(=O)Cc3ccccn3)[C@@H](C)C(=O)O[C@H](CC)[C@@]3(C)OC(=O)N(CCCCn4cnc(-c5cncnc5)c4)[C@@H]3[C@@H](C)C(=O)[C@H](C)C[C@@]2(C)OC)[C@@H]1O`, for which the MIC was 0.03 µg/mL (≈ 0.0312 µM) against Streptococcus pyogenes; 0.25 µg/mL (≈ 0.26 µM) against Streptococcus pneumoniae [9]; 0.125 µg/mL (≈ 0.13 µM) against Moraxella catarrhalis; 0.06 µg/mL (≈ 0.0625 µM) against Streptococcus pneumoniae [10]; < 0.06 µg/mL in the test on Haemophilus influenzae; 0.03 µg/mL (≈ 0.0312 µM) in the test with Streptococcus pneumoniae [14]. This compound also displayed an MIC against Streptococcus pneumoniae [16] of 0.03 µg/mL (≈ 0.0312 µM).

As to `CC[C@H]1OC(=O)[C@H](C)[C@@H](OC(=O)Cc2ccccn2)[C@H](C)[C@@H](O[C@@H]2O[C@H](C)C[C@H](N(C)CC)[C@H]2O)[C@](C)(OC)C[C@@H](C)C(=O)[C@H](C)[C@H]2N(CCCCn3cnc(-c4cccnc4)c3)C(=O)O[C@]12C`, the MIC in the test on Streptococcus pyogenes was found to be 0.06 µg/mL (≈ 0.0633 µM); in the test on Streptococcus pneumoniae [9] it was 1 µg/mL (≈ 1.06 µM); in the test with Moraxella catarrhalis it was 0.25 µg/mL (≈ 0.264 µM); against Streptococcus pneumoniae [10], 0.06 µg/mL (≈ 0.0633 µM); in the test on Haemophilus influenzae, 1 µg/mL (≈ 1.06 µM); with Streptococcus pneumoniae [14] it was 0.06 µg/mL (≈ 0.0633 µM). In the test with Streptococcus pneumoniae [16], the MIC stood at 0.015 µg/mL (≈ 0.0158 µM).
